Reference: US9346741B2, “Polyamine transport selective therapeutic agents with enhanced stability” (University of Central Florida Research Foundation, Inc., priority 2012, dated 2016)
“And” between values parts separate entries of the source, which are not always exact repeats. Identical values can stand only once. Like-named read-outs stand apart in the source and are kept apart here. Marks after values point to notes of the source that are not given here.

How the values were obtained:
CHO-MG* cells = experiment: Cytotoxicity IC50 determination (MTS) in polyamine-transport-deficient CHO-MG* cells; assay type: cell-based, Chinese hamster; conditions: 48 h at 37° C.
Excerpt: (§1) CHO cells were chosen along with a mutant cell line (CHO-MG*) to comment on how the synthetic conjugates gain access to the cells.^2c-e, 6 As discussed earlier, the CHO-MG cell line is polyamine-transport deficient and represents a model for alternative modes of entry (other than PTS) including passive diffusion or use of another transporter. The CHO cell line on the other hand, represents cells with high polyamine transport activity.^7, 10c A comparison of toxicity in these two CHO cell lines allowed for a screen that would detect selective use of the polyamine transporter. This is seen where high utilization of the PTS would be very toxic to CHO cells, however, there would not be the same level of toxicity found in CHO-MG cells.^2c-e, 6 Ultimately, a CHO-MG/CHO IC50 can be determined where a high ratio would be achieved for highly PTS selective compounds.
(§2) CHO and CHO-MG cells were grown in RPMI 1640 medium supplemented with 10% fetal calf serum and 1% penicillin/streptomycin. Note: the media must contain L-proline (2 μg/mL) for proper growth of the CHO-MG cells. MALME-3M cells were grown in RPMI 1640 medium supplemented with 10% FBS and 1% penicillin/streptomycin. […] Cells in early to mid-log phase were used.
(§3) Cell growth was assayed in sterile 96-well microtiter plates (Costar 3599, Corning, N.Y., USA). CHO and CHO-MG* cells were plated at 10,000 cells/mL. MALME-3M and MALME-3 cells were plated at 5,000 cells/mL. Drug solutions (10 μL per well) of appropriate concentration were added after an overnight incubation for each CHO cell line (90 μL). 48 h MALME-3M experiments were conducted using 10% Nu-Serum IV, and 96 h MALME-3M and MALME-3 experiments were conducted using 10% FBS. After exposure to the drug for 48 h (CHO, CHO-MG*, and MALME-3M) or 96 h (MALME-3M and MALME-3), cell growth was determined by measuring formazan
(§4) formation from 3-(4,5-dimethylthiazol-2-yl)-5-(3-carboxymethoxyphenyl)-2-(4-sulphenyl)-2H-tetrazolium) inner salt (MTS) using a SynergyMx Biotek microplate reader for absorbance ([…]) measurements.^24

CHO cells = experiment: in vitro; assay type: cell-based; conditions: for IC50: 48 h at 37° C.; for MTD (μM) in CHO (maximum tolerated dose): hamster
Excerpt: as §1, §2, §3, §4

[1] = tested on: polyamine transport system (PTS), CHO-MG* vs CHO cells; experiment: CHO-MG*/CHO IC50 ratio, a measure of PTS selectivity; assay type: cell-based, Chinese hamster; conditions: 48 h; for IC50 ratio w/AG (CHO-MG*/CHO): with 1 mM AG; for IC50 ratio w/o AG (CHO-MG*/CHO): without AG
Excerpt: Compounds with high CHO-MG/CHO IC50 ratios are considered PTS selective.
as §1

MALME-3 cells [2] = experiment: Cytotoxicity IC50 determination (MTS) in MALME-3 cells; assay type: cell-based, human; conditions: 96 h at 37° C., 1 mM AG, 10% FBS
Procedure: Armed with this insight, compounds 5a-8b were evaluated in the MALME-3M (melanoma) cell line and its non-cancerous counterpart MALME-3 obtained originally from the same patient. These matched cell lines provided a method to assess PTS selectivity for the cancer line (MALME-3M) over the non-cancerous cell line (MALME-3).
(§5) CHO and CHO-MG cells were grown in RPMI 1640 medium supplemented with 10% fetal calf serum and 1% penicillin/streptomycin. Note: the media must contain L-proline (2 μg/mL) for proper growth of the CHO-MG cells. MALME-3M cells were grown in RPMI 1640 medium supplemented with 10% FBS and 1% penicillin/streptomycin. All cells were grown at 37° C. under a humidified 5% CO2 atmosphere Aminoguanidine (1 mM) was added to the growth medium to prevent oxidation of the drugs by the enzyme (bovine serum amine oxidase) present in calf serum. Cells in early to mid-log phase were used.
as §3, §4

MALME-3M cells = experiment: Cytotoxicity IC50 determination (MTS) in MALME-3M cells; assay type: cell-based, human
Procedure: Armed with this insight, compounds 5a-8b were evaluated in the MALME-3M (melanoma) cell line and its non-cancerous counterpart MALME-3 obtained originally from the same patient. These matched cell lines provided a method to assess PTS selectivity for the cancer line (MALME-3M) over the non-cancerous cell line (MALME-3). […]
as §5, §3, §4

[3] = tested on: MALME-3M (melanoma) vs MALME-3 (normal) cells; experiment: MALME-3/MALME-3M IC50 ratio, a measure of selectivity; assay type: cell-based, human; conditions: 96 h; 1 mM AG
Excerpt: These matched cell lines provided a method to assess PTS selectivity for the cancer line (MALME-3M) over the non-cancerous cell line (MALME-3).

MALME-3 cells [4] = experiment: Spermidine rescue experiments in MALME-3 cells; assay type: cell-based, human; conditions: dosed near the IC50 value; increasing spermidine
Procedure: In order to validate that these drugs were toxic due to their use of the polyamine transport system, spermidine rescue experiments were conducted. Spermidine is a native polyamine and uses the PTS for cell entry. High concentrations of spermidine should outcompete the PTS-targeting drugs for cell entry. In this regard, spermidine when dosed at a non-toxic concentration should rescue the cells from the toxic effects of the PTS targeting agents. […] Both the anthryl and naphthyl systems when dosed at their IC50 concentrations gave >92% viability at 10 μM spermidine validating their use of the PTS. Rescue was observed from the initial 50% viability to >92% viability after co-dosing 10 μM spermidine.
As stated above, in an effort to determine if the cytotoxicities seen for compounds 6-8 were polyamine transport related, MALME-3M and MALME-3 were dosed near the IC50 value of each drug. These cells were also treated with increasing amounts of spermidine to see if it could outcompete compounds 6-8 for cellular entry and thus rescue the cells. […] This supports the premise that these compounds gain access to these cells primarily via the PTS. […] Since the viability of MALME-3M cells could be partially rescued by spermidine, compounds 8a and 8b may gain access via the PTS and via non-PTS related pathway(s).

[5] = tested on: polyamine transport system (PTS) in L1210 cells; conditions: cited from earlier work
in vitro = assay type: cell-based; conditions: Chinese hamster
Excerpt: as §1, §2, §3, §4

[6] = tested on: 60 human cancer cell lines; experiment: NCI 60 cell-line screen; assay type: cell-based; conditions: 48 h
Procedure: Once compounds 6a-b, 7a-b, and 8a-8b were evaluated in CHO and CHO-MG*, these compounds were sent to the National Cancer institute (NCI) to conduct its 60 cell-line screen to determine if these compounds could also be potent anti-cancer agents for human cancer cell lines. […] As shown in FIGS. 2A-2C, dose response curves were generated based upon the 60 cell-line screen at different molar concentrations of each PTS targeting agent 6b, 7b, and 8b.
To generate FIGS. 2A-2C, the respective drug was dosed at 10 μM into each human cancer cell line and cell viability was assessed after a 48 h incubation at 37° C. in an environment of 5% CO2, 95% air and 100% relative humidity. A more descriptive methodology can be found at the NCI website: http://dtp.nci.nih.gov/branches/btb/ivclsp.html. Cell lines which gave bar graphs which extend to the right of the central line were more sensitive to the drug than cell lines which extended to the left of the center line.

[7] = tested on: 60 human cancer cell lines; experiment: NCI 60 cell-line screen; assay type: cell-based; conditions: 5-dose assay
[8] = tested on: polyamine transport system (PTS), CHO-MG vs CHO cells; conditions: original CHO-MG line; cited from earlier work
[9] = 1 mM AG 24 h prior to drug addition, read-out: CHO-MG* IC50 (μM) w/AG
[10] = without AG, read-out: CHO-MG* IC50 (μM) w/o AG
[11] = 1 mM AG 24 h prior to drug addition, read-out: CHO IC50 (μM) w/AG
[12] = without AG, read-out: CHO IC50 (μM) w/o AG
[13] = 48 h at 37° C., 1 mM AG, 10% Nu-Serum IV, read-out: MALME-3M IC50 (μM) w/ AG
[14] = 48 h at 37° C., without AG, 10% Nu-Serum IV, read-out: MALME-3M IC50 (μM) w/o AG
[15] = 96 h at 37° C., 1 mM AG, 10% FBS, read-out: MALME-3M IC50
[16] = Cricetulus griseus, CHO-MG, Table 4, 1 mM AG 24 h prior to drug addition, read-out: CHO-MG* IC50
[17] = Cricetulus griseus, CHO, Table 4, 1 mM AG 24 h prior to drug addition, read-out: CHO IC50

Row | SMILES | IC50 (CHO-MG* cells; [9]) [µM] | IC50 (CHO-MG* cells; [10]) [µM] | IC50 (CHO cells; [11]) [µM] | IC50 (CHO cells; [12]) [µM] | IC50 ratio w/AG (CHO-MG*/CHO) [1] | IC50 ratio w/o AG (CHO-MG*/CHO) [1] | IC50 (MALME-3 cells [2]) [nM] | IC50 (MALME-3M cells; [13]) [µM] | IC50 (MALME-3M cells; [14]) [µM] | IC50 (MALME-3M cells; [15]) [µM] | MALME-3/MALME-3M IC50 ratio [3] | IC50 (CHO-MG* cells; [16]) [µM] | viability at 48 h, 0.01 μM (in vitro) [%] | IC50 (CHO cells; [17]) [µM] | MTD (μM) in CHO (maximum tolerated dose) (CHO cells) | other results
1 | Cl.NCCCCNCCCCNCc1ccc(CNCCCCNCCCCN)cc1 [Compound 8a] | 19.6 | 56.5 | 0.027 | 10.3 | 727 | 5.5 | 90 | 0.01 | 0.4 | 0.005 | 18 |  |  |  |  | rescue by exogenous spermidine in MALME-3 (MALME-3 cells [4]): complete rescue; Ki ([5]; read-out: Ki in L1210 cells): 520 nM; Ki ([5]; unit inferred, read-out: Ki values in L1210 cells): 490 ± 20 nM
2 | NCCCCNCCCCNCc1cccc(CNCCCCNCCCCN)c1 [Compound 34a, N^1,N^1′-(1,3-phenylenebis(methylene))bis(N^4-(4-aminobutyl)butane-1,4-diamine)] |  |  |  |  | 1072 |  |  |  |  |  |  | 30 | ~90 | 0.028 | 0.01^f μM | 
3 | CNCCCCNCCCCNCc1c2ccccc2c(CNCCCCNCCCCNC)c2ccccc12 [Compound 6b, N1,N1′-(Anthracene-9,10-diylbis(methylene))bis(N4-(4-(methylamino)butyl)butane-1,4-diamine)] |  |  |  |  | >1204 | >1190 |  |  |  |  | 16 |  |  |  |  | IC50 (CHO-MG* cells; Cricetulus griseus, CHO-MG, 1 mM AG 24 h prior to drug addition, read-out: CHO-MG* IC50 (μM) w/AG): > 100 µM; IC50 (CHO-MG* cells; Cricetulus griseus, CHO-MG, without AG, read-out: CHO-MG* IC50 (μM) w/o AG): > 100 µM; IC50 (CHO cells; Cricetulus griseus, CHO, 1 mM AG 24 h prior to drug addition, read-out: CHO IC50 (μM) w/AG): 0.083 µM; IC50 (CHO cells; Cricetulus griseus, CHO, without AG, read-out: CHO IC50 (μM) w/o AG): 0.084 µM; IC50 (MALME-3 cells [2]; Homo sapiens, MALME-3): 1000 nM; IC50 (MALME-3M cells; Homo sapiens, Malme-3M, 48 h at 37° C., 1 mM AG, 10% Nu-Serum IV, read-out: MALME-3M IC50 (μM) w/ AG): 0.13 µM; IC50 (MALME-3M cells; Homo sapiens, Malme-3M, 48 h at 37° C., without AG, 10% Nu-Serum IV, read-out: MALME-3M IC50 (μM) w/o AG): 0.16 µM; IC50 (MALME-3M cells; Homo sapiens, Malme-3M, 96 h at 37° C., 1 mM AG, 10% FBS, read-out: MALME-3M IC50): 0.062 µM; effect on breast cancer cell lines in the NCI 60 cell-line screen ([6]; 10 μM): exhibited an anti-proliferation effect in breast cancer cell lines, particularly the T-47D cell line; effect on melanoma cell lines in the NCI 60 cell-line screen ([6]; 10 μM): inhibited the proliferation of melanoma cell lines, particularly the MALME-3M cell line; NCI 60 cell-line screen, overall result ([6]; no AG): cell-targeting specificity, especially for the MALME-3M cell line; NCI 5-dose assay, MALME-3M cell line [7]: dose dependent response
4 | Cl.NCCCCNCCCCNCc1c2ccccc2cc2ccccc12 [Compound 5a, reference compound] | 13.7 | 2.2 | 0.32 | 1.5 | 43 and 42.8 | 1.4 | 830 | 0.48 | 0.29 | 0.27 | 3.1 |  |  |  |  | CHO-MG/CHO IC50 ratio [8]: 150 and 148
5 | NCCCCNCCCCNCCCCNCc1cccc(CNCCCCNCCCCNCCCCN)c1 [Compound 34b, N^1,N^1′-(1,3-phenylenebis(methylene))bis(N^4-(4-((4-aminobutyl)amino)butyl)butane-1,4-diamine)] |  |  |  |  | 335 |  |  |  |  |  |  | 13.4 | ~90 | 0.04 | 0.01^g μM | 
